Series [1] in a line: Thermodynamic aqueous solubility of compound in phosphate buffer at pH 7.4 by reversed-phase ultrahigh pressure liquid chromatography. The format is physicochemical. The following applies: phosphate buffer, read-out: Therm_solubility.
Another series deals with Mus musculus. Nature of the series: Expansion of interpubic ligament in estrogen-treated female C57BL/6 mouse assessed as symphysis widening at 25 mg/kg, iv administered on day 7 and measured on day 8 by microCT analysis (reference value: 17.6 %). Format: functional. The following applies: time 1 day.
In another series the target is T1, Cytochrome P450 2C8 (Homo sapiens, UniProt P10632).
T1 sequence (P10632 whole entry): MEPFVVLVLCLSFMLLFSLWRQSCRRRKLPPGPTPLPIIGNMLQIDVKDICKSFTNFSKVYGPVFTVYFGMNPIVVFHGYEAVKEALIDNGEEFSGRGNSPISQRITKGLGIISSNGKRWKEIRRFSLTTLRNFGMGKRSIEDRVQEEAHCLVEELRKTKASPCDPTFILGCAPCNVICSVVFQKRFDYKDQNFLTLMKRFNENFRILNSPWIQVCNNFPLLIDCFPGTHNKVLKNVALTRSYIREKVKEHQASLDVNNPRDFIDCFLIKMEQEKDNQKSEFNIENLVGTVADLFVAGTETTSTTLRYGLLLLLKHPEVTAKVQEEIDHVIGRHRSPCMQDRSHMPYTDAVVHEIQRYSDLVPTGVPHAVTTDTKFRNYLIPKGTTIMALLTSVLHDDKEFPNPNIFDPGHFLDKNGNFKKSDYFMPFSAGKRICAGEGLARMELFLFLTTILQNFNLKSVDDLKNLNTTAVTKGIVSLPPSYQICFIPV
The experiment in a line: Inhibition of CYP2C8 (unknown origin).

Series [2] is described as follows: Total AUC in Sprague-Dawley rat at 1 mg/kg, iv. Format: ADME, organism-based. The following applies: in vivo.
In another series the target is Cytochrome P450 2C9 (Homo sapiens, UniProt P11712). The experiment in a line: Inhibition of CYP2C9 (unknown origin).
A short description of series [3]: Microsomal stability in rat liver microsomes assessed as half life. The format is ADME, Microsome. In general terms: Microsomes from liver hold many membrane-bound enzymes, among them those of drug oxidation.
A further series concerns the target T2, Relaxin receptor 1 (Homo sapiens, UniProt Q9HBX9).
T2 sequence (Q9HBX9 whole entry): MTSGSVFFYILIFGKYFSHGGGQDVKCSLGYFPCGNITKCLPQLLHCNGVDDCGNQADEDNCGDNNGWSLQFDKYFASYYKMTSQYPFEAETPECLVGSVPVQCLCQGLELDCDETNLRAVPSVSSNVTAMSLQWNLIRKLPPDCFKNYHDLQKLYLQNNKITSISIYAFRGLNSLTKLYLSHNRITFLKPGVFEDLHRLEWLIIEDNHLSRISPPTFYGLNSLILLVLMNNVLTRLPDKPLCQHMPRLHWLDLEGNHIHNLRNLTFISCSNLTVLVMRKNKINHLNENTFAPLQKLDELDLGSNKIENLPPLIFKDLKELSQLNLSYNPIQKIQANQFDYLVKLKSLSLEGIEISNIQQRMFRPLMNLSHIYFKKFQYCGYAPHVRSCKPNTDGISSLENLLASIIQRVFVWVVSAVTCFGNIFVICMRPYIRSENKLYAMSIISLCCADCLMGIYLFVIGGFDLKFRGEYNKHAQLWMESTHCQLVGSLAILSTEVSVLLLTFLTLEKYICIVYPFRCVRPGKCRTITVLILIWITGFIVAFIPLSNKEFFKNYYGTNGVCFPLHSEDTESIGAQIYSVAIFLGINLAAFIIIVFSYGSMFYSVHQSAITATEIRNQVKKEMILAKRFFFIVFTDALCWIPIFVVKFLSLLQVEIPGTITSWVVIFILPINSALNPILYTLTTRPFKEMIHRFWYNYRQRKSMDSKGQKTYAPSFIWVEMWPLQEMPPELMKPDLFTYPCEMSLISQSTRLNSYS
The experiment in a line: Agonist activity at human RXFP1 stably expressed in HEK293 cells assessed as intracellular cAMP accumulation incubated for 30 mins by HTRF assay. On the technique in general: Changes in cAMP serve as a functional read-out for many G protein-coupled receptors.

Series [4] can be described thus: Microsomal stability in human liver microsomes assessed as half life. Format: ADME, Microsome.
The next series concerns the target T3, Cytochrome P450 1A2 (Homo sapiens, UniProt P05177).
T3 sequence (P05177 whole entry): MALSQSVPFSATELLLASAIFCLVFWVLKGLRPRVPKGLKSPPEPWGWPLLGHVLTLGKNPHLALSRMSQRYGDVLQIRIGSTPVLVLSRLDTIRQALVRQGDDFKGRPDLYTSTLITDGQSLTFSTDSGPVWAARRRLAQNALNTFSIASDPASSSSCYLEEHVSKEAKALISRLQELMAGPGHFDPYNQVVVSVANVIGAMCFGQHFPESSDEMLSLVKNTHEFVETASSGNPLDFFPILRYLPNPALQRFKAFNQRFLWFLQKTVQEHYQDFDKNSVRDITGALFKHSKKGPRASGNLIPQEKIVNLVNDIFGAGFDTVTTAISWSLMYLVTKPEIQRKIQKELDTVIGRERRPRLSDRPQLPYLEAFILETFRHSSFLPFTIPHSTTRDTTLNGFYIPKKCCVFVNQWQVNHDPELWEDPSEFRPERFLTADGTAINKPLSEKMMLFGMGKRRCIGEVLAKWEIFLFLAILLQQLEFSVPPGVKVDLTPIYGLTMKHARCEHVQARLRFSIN
Nature of the series: Inhibition of CYP1A2 (unknown origin).

A short description of series [5]: Half life in Sprague-Dawley rat at 1 mg/kg, iv. Format: ADME, organism-based. As to conditions: in vivo.
Another series has as its target Cytochrome P450 2C19 (Homo sapiens, UniProt P33261). The experiment in a line: Inhibition of CYP2C19 (unknown origin).

Converted amounts (≈) assume the structure as drawn.

Chain of Cytochrome P450 2C19 (P33261 whole entry): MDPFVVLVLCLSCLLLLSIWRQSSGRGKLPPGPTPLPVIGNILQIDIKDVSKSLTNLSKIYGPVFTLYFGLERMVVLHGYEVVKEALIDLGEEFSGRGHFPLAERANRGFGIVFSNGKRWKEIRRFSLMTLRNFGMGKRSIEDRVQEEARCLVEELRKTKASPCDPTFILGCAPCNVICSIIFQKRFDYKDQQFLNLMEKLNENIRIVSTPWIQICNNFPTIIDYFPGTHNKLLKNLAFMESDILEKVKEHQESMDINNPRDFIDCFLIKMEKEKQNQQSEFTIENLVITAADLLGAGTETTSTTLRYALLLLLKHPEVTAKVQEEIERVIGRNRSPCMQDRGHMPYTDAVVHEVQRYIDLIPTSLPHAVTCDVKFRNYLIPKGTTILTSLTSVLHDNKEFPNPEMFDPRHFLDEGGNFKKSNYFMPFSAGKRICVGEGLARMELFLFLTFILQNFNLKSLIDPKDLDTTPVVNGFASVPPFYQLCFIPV
Chain of Cytochrome P450 2C9 (P11712 whole entry): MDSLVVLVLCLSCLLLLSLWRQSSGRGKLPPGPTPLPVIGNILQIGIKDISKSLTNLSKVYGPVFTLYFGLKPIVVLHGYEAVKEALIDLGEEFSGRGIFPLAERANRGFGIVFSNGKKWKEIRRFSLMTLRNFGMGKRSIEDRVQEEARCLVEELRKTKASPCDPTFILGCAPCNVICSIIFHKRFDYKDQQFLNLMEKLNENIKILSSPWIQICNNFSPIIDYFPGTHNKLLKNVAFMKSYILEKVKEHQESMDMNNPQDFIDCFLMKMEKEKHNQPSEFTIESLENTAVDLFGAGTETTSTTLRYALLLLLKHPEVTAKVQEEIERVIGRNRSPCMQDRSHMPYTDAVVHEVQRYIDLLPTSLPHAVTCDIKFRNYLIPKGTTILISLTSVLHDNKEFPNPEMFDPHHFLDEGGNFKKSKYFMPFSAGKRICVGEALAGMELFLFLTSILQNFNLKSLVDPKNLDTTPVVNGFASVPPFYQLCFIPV

As a reminder, the IC50 is the point on the concentration scale where inhibition reaches its midpoint. As usually defined, the AUC is concentration integrated over time. Read a high AUC as more exposure. The term half-life denotes the time needed for the level to fall by half in the phase considered. The term EC50 denotes the midpoint of the concentration-response curve. In the case of `CNC(=O)OC(C(=O)O)c1ccc(F)c(-c2ccc(OC)c(C(=O)N[C@H]3[C@@H](C(=O)Nc4ccc(F)c(C(F)(F)F)c4)[C@H]4CC[C@@H]3/C4=C\C3CC3)c2)c1` (stereo in doubt; 39), the solubility thermodynamic in [1] turned out to be 130 µg/mL (≈ 179 µM). Besides, the Activity with Mus musculus is 500.4%. Moreover, the IC50 is 2.6 µM on Cytochrome P450 2C8, 4 µM on Cytochrome P450 2C9, 4.6 µM at Cytochrome P450 1A2 and 17 µM at Cytochrome P450 2C19. This molecule returned an area under the curve (AUC) in series [2] of 9.6 µM·h. Moreover, the half-life in series [3] was above 2 h; in series [4], above 2 h; in series [5], 4.43 h. The EC50 at Relaxin receptor 1 is 0.002 µM.
